Experimental findings from PubChem BioAssay AID1259407 (Chemical Carcinogenesis Research Information System (CCRIS), 2018) are described below.

Activity calls are given as the source filed them. No rule for the calls is given here.

The series relates to CCRIS mutagenicity, Ames/micronucleus/aberration tests. As to the kind of experiment: CCRIS mutagenicity studies.
Setting [1] is: Test System: AMES SALMONELLA TYPHIMURIUM, Strain/Indicator: TA98, Metabolic Activation: NONE, Method: STANDARD PLATE.
Where [2] appears, read: Test System: AMES SALMONELLA TYPHIMURIUM, Strain/Indicator: TA100, Metabolic Activation: NONE, Method: STANDARD PLATE.

For the compound `ClC(Br)Br`, the mutagenic call is, setting by setting: (End Point: IN VITRO CHROMOSOMAL ABERRATIONS, Test System: CHINESE HAMSTER LUNG FIBROBLAST CELLS (CHL/IU), Metabolic Activation: RAT, LIVER, S-9, PHENOBARBITAL AND 5,6-BENZOFLAVONE) “inactive; negative; authors describe as weakly positive”; (End Point: IN VITRO CHROMOSOMAL ABERRATIONS, Test System: CHO-LB CELLS, Metabolic Activation: NONE) “inactive; negative”; (End Point: IN VIVO MICRONUCLEUS, Test System: BONE MARROW POLYCHROMATIC ERYTHROCYTES, Species: MOUSE, Strain/Sex: DDY/MALE, Route: IP) “inactive; negative”; (Test System: AMES SALMONELLA TYPHIMURIUM, Strain/Indicator: RSJ100, Metabolic Activation: NONE, Method: STANDARD PLATE) “active; positive”; (Test System: AMES SALMONELLA TYPHIMURIUM, Strain/Indicator: TA98, Metabolic Activation: HAMSTER, LIVER, S-9, AROCLOR 1254 (10%), Method: PREINCUBATION) “inactive; negative”; (Test System: AMES SALMONELLA TYPHIMURIUM, Strain/Indicator: TA98, Metabolic Activation: HAMSTER, LIVER, S-9, AROCLOR 1254, Method: PREINCUBATION) “inactive; negative”. For the same compound, the mutagenic call reads like this: (Test System: AMES SALMONELLA TYPHIMURIUM, Strain/Indicator: TA98, Metabolic Activation: NONE, Method: PREINCUBATION) “inactive; negative”; under setting [1], “inactive; negative”; (Test System: AMES SALMONELLA TYPHIMURIUM, Strain/Indicator: TA98, Metabolic Activation: RAT, LIVER, S-9, AROCLOR 1254 (10%), Method: PREINCUBATION) “inactive; negative”; (Test System: AMES SALMONELLA TYPHIMURIUM, Strain/Indicator: TA98, Metabolic Activation: RAT, LIVER, S-9, AROCLOR 1254, Method: PREINCUBATION) “inactive; negative”; (Test System: AMES SALMONELLA TYPHIMURIUM, Strain/Indicator: TA98, Metabolic Activation: RAT, LIVER, S-9, AROCLOR 1254, Method: STANDARD PLATE) “active; positive”; (Test System: AMES SALMONELLA TYPHIMURIUM, Strain/Indicator: TA100, Metabolic Activation: HAMSTER, LIVER, S-9, AROCLOR 1254 (10%), Method: PREINCUBATION) “inactive; negative”. For the same compound, the mutagenic call reads like this: (Test System: AMES SALMONELLA TYPHIMURIUM, Strain/Indicator: TA100, Metabolic Activation: HAMSTER, LIVER, S-9, AROCLOR 1254, Method: PREINCUBATION) “inactive; negative”; (Test System: AMES SALMONELLA TYPHIMURIUM, Strain/Indicator: TA100, Metabolic Activation: NONE, Method: DESICCATOR) “active; positive”; (Test System: AMES SALMONELLA TYPHIMURIUM, Strain/Indicator: TA100, Metabolic Activation: NONE, Method: FLUCTUATION TEST) “inactive; negative”; (Test System: AMES SALMONELLA TYPHIMURIUM, Strain/Indicator: TA100, Metabolic Activation: NONE, Method: PREINCUBATION) “inactive; negative”; under setting [2], “inactive; negative”; (Test System: AMES SALMONELLA TYPHIMURIUM, Strain/Indicator: TA100, Metabolic Activation: RAT, LIVER, S-9, AROCLOR 1254 (10%), Method: PREINCUBATION) “inactive; negative”. Also, the mutagenic call runs as follows: (Test System: AMES SALMONELLA TYPHIMURIUM, Strain/Indicator: TA100, Metabolic Activation: RAT, LIVER, S-9, AROCLOR 1254, Method: FLUCTUATION TEST) “inactive; negative”; (Test System: AMES SALMONELLA TYPHIMURIUM, Strain/Indicator: TA100, Metabolic Activation: RAT, LIVER, S-9, AROCLOR 1254, Method: PREINCUBATION) “inactive; negative”; (Test System: AMES SALMONELLA TYPHIMURIUM, Strain/Indicator: TA100, Metabolic Activation: RAT, LIVER, S-9, AROCLOR 1254, Method: STANDARD PLATE) “active; positive”; (Test System: AMES SALMONELLA TYPHIMURIUM, Strain/Indicator: TA1535, Metabolic Activation: HAMSTER, LIVER, S-9, AROCLOR 1254 (10%), Method: PREINCUBATION) “inactive; negative”; (Test System: AMES SALMONELLA TYPHIMURIUM, Strain/Indicator: TA1535, Metabolic Activation: HAMSTER, LIVER, S-9, AROCLOR 1254, Method: PREINCUBATION) “inactive; negative”; (Test System: AMES SALMONELLA TYPHIMURIUM, Strain/Indicator: TA1535, Metabolic Activation: NONE, Method: PREINCUBATION) “inactive; negative”. Besides, the mutagenic call is, setting by setting: (Test System: AMES SALMONELLA TYPHIMURIUM, Strain/Indicator: TA1535, Metabolic Activation: NONE, Method: STANDARD PLATE) “active; positive”; (Test System: AMES SALMONELLA TYPHIMURIUM, Strain/Indicator: TA1535, Metabolic Activation: RAT, LIVER, S-9, AROCLOR 1254 (10%), Method: PREINCUBATION) “inactive; negative”; (Test System: AMES SALMONELLA TYPHIMURIUM, Strain/Indicator: TA1535, Metabolic Activation: RAT, LIVER, S-9, AROCLOR 1254, Method: PREINCUBATION) “inactive; negative”; (Test System: AMES SALMONELLA TYPHIMURIUM, Strain/Indicator: TA1535, Metabolic Activation: RAT, LIVER, S-9, AROCLOR 1254, Method: STANDARD PLATE) “active; positive”; (Test System: AMES SALMONELLA TYPHIMURIUM, Strain/Indicator: TA1537, Metabolic Activation: HAMSTER, LIVER, S-9, AROCLOR 1254 (10%), Method: PREINCUBATION) “inactive; negative”; (Test System: AMES SALMONELLA TYPHIMURIUM, Strain/Indicator: TA1537, Metabolic Activation: HAMSTER, LIVER, S-9, AROCLOR 1254, Method: PREINCUBATION) “inactive; negative”. Moreover, the mutagenic call was “inactive; negative” (Test System: AMES SALMONELLA TYPHIMURIUM, Strain/Indicator: TA1537, Metabolic Activation: NONE, Method: PREINCUBATION); “active; positive” (Test System: AMES SALMONELLA TYPHIMURIUM, Strain/Indicator: TA1537, Metabolic Activation: NONE, Method: STANDARD PLATE); “inactive; negative” (Test System: AMES SALMONELLA TYPHIMURIUM, Strain/Indicator: TA1537, Metabolic Activation: RAT, LIVER, S-9, AROCLOR 1254 (10%), Method: PREINCUBATION); “inactive; negative” (Test System: AMES SALMONELLA TYPHIMURIUM, Strain/Indicator: TA1537, Metabolic Activation: RAT, LIVER, S-9, AROCLOR 1254, Method: PREINCUBATION); “active; positive” (Test System: AMES SALMONELLA TYPHIMURIUM, Strain/Indicator: TA1537, Metabolic Activation: RAT, LIVER, S-9, AROCLOR 1254, Method: STANDARD PLATE); “inactive; negative” (Test System: MOUSE LYMPHOMA, Strain/Indicator: L5178Y (TK+/TK-), Metabolic Activation: NONE, Method: MICROWELL). Further, the mutagenic call (Test System: MOUSE LYMPHOMA, Strain/Indicator: L5178Y (TK+/TK-), Metabolic Activation: NONE, Method: SUSPENSION/PLATE) was “active; positive”; the mutagenic call (Test System: MOUSE LYMPHOMA, Strain/Indicator: L5178Y (TK+/TK-), Metabolic Activation: S-9, Method: MICROWELL) was “active; positive”; the mutagenic call (Test System: UDS RAT HEPATOCYTES, Strain/Indicator: THY INCORP, Metabolic Activation: NONE, Method: AUTORADIOGRAPHY) was “inactive; negative”.

For the compound `C=CCc1[c-]cccc1.C=CCc1[c-]cccc1.[Pt+2].c1ccc(P(c2ccccc2)c2ccccc2)cc1.c1ccc(P(c2ccccc2)c2ccccc2)cc1`, the mutagenic call was “inactive; negative” (Test System: AMES SALMONELLA TYPHIMURIUM, Strain/Indicator: TA92, Metabolic Activation: NONE, Method: STANDARD PLATE); “inactive; negative” under setting [1]; “inactive; negative” under setting [2]; “inactive; negative” (Test System: AMES SALMONELLA TYPHIMURIUM, Strain/Indicator: TA2410, Metabolic Activation: NONE, Method: STANDARD PLATE).
